Like-named read-outs stand apart in the source and are kept apart here.
Columns and labels:
human Nav1.7 = human Nav1.7 (Homo sapiens (Human), UniProt Q15858); assay: Nav 1.7 in vitro PatchXpress (PX) assay; type: cell-based
human Nav 1.5 = human Nav 1.5 (Homo sapiens (Human), UniProt Q14524); assay: Nav 1.5 IonWorks Quattro (IWQ) in vitro assay; type: cell-based
[1] = in-vitro Nav 1.5 IWQ data, read-out: NAV 1.5 IWQ (IC50)

Chain of human Nav 1.5 (Q14524 whole entry): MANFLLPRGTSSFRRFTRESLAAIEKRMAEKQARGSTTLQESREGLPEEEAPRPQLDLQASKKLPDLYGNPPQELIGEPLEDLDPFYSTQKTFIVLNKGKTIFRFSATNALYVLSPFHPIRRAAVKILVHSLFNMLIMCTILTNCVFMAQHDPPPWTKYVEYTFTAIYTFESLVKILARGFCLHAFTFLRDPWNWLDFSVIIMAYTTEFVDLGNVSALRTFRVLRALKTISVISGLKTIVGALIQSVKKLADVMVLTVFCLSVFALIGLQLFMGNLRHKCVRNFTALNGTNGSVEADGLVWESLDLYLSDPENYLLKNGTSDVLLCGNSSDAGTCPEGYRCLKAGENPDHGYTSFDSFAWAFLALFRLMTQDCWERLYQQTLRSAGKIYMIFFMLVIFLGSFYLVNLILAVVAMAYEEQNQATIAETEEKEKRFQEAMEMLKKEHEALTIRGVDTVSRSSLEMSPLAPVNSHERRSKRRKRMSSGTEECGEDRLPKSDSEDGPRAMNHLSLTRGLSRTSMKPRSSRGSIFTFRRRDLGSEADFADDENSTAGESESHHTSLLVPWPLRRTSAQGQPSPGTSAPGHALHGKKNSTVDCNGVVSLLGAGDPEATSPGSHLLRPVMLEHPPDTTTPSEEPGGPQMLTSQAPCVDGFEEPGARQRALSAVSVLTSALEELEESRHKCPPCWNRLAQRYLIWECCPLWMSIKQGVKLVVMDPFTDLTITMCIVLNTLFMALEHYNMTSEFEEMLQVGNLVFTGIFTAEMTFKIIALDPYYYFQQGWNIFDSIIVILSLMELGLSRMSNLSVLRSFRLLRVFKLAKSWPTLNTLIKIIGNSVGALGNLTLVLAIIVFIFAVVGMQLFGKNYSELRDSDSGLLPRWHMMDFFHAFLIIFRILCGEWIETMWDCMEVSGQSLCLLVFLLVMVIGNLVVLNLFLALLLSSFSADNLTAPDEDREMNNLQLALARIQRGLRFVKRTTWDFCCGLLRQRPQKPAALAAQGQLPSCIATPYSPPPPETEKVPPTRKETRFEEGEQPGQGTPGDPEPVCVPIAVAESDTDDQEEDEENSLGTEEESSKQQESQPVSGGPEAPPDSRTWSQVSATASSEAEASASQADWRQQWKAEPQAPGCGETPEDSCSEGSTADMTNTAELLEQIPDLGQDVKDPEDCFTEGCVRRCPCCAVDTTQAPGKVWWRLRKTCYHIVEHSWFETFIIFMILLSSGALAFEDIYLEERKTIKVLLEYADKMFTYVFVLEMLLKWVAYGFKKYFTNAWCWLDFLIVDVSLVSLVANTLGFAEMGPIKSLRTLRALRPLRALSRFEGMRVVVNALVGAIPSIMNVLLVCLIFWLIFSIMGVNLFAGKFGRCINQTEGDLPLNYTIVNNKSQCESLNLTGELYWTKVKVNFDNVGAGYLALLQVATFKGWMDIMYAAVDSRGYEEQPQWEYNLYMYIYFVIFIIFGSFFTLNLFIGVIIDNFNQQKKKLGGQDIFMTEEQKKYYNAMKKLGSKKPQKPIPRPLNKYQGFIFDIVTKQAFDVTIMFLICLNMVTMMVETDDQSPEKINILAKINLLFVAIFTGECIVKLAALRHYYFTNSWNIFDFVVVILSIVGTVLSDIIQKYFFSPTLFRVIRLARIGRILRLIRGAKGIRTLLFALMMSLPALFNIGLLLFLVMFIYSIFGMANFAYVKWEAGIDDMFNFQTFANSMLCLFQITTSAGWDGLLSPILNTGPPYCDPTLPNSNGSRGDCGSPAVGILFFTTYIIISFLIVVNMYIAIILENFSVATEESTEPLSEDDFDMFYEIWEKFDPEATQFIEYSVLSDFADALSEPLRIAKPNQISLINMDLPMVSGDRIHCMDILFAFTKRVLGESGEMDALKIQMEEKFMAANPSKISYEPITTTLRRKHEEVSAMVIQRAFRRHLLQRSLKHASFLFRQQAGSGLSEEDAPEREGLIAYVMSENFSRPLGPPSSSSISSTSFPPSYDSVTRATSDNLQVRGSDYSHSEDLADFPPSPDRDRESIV
Chain of human Nav1.7 (Q15858 whole entry): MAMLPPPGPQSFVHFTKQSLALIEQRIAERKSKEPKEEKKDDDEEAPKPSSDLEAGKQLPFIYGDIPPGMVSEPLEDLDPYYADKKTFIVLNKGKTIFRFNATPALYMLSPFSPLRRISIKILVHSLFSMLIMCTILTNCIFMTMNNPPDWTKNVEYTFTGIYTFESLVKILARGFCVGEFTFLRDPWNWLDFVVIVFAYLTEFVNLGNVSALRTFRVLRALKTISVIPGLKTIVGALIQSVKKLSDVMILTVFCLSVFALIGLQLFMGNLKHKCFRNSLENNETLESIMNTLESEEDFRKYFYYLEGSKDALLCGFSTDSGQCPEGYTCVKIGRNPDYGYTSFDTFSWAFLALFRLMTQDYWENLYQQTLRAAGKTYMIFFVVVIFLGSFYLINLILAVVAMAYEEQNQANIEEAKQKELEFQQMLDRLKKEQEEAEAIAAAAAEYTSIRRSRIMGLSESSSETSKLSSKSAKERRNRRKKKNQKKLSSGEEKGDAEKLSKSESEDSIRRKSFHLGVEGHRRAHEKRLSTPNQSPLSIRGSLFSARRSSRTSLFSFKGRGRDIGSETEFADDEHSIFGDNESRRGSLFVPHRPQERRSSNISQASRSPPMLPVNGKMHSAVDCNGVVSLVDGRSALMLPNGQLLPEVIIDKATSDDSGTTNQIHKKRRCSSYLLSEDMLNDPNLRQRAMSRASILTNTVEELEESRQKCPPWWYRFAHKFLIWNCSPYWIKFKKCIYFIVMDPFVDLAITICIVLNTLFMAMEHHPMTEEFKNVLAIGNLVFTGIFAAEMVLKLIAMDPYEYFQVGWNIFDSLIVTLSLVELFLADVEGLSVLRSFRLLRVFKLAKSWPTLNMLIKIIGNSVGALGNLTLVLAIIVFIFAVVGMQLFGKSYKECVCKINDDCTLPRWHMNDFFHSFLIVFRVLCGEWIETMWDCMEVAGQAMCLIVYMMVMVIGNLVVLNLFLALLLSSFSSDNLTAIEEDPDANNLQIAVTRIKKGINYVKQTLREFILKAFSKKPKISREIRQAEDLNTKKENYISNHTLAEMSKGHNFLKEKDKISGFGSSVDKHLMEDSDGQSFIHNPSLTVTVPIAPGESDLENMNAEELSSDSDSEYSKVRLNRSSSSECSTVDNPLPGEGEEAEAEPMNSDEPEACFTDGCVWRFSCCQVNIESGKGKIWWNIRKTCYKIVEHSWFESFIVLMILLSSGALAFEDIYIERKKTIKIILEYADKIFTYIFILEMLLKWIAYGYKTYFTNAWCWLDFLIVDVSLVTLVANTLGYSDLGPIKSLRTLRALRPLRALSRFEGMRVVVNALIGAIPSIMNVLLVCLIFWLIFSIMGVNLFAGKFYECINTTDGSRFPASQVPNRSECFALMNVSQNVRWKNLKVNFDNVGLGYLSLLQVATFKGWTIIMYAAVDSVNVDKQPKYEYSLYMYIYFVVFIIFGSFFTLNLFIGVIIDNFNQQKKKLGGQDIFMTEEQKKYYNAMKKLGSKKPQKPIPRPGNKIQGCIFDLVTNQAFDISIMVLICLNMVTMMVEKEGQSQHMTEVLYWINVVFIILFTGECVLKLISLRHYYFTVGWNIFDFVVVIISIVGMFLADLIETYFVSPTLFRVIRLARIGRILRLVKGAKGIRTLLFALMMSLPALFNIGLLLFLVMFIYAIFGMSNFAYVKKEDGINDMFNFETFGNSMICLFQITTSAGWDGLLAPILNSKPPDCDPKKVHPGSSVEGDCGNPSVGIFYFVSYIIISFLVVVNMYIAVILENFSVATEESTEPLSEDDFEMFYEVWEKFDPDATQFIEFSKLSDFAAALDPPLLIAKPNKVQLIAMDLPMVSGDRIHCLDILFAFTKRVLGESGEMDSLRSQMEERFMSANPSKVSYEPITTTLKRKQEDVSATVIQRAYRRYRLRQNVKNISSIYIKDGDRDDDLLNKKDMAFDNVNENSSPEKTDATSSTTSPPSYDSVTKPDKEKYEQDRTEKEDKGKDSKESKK

Compound | IC50 (human Nav1.7) [nM] | IC50 (human Nav 1.5; read-out: NAV 1.5 IWQ IC50) [nM] | IC50 (human Nav1.7; in-vitro Nav 1.7 PX data) [nM] | IC50 (human Nav 1.5; [1]) [nM]
Cc1cc(Cl)ccc1Oc1ncc(-c2cc(F)c(C(=O)NS(C)(=O)=O)cc2C)cc1Cl [Example 620, 4-(5-chloro-6-(4-chloro-2-methylphenoxy)-3-pyridinyl)-2-fluoro-5-methyl-N-(methylsulfonyl)benzamide] | 76.1 | > 3000 | – | –
Cc1ccc([C@H]2CCCN2c2ncc(-c3cc(F)c(C(=O)NS(C)(=O)=O)cc3C)cc2Cl)cc1 [Example 657, 4-(5-chloro-6-((2R)-2-(4-methylphenyl)-1-pyrrolidinyl)-3-pyridinyl)-2-fluoro-5-methyl-N-(methylsulfonyl)benzamide, 4-(5-chloro-6-((2S)-2-(4-methylphenyl)-1-pyrrolidinyl)-3-pyridinyl)-2-fluoro-5-methyl-N-(methylsulfonyl)benzamide] | 92.9 | > 3000 | – | –
Cc1cc(C(=O)NS(C)(=O)=O)c(F)cc1-c1cnc(Oc2c(C)ccc3ccccc23)c(Cl)c1 [Example 608, 4-(5-chloro-6-((2-methyl-1-naphthalenyl)oxy)-3-pyridinyl)-2-fluoro-5-methyl-N-(methylsulfonyl)benzamide] | 48.1 | > 3000 | – | –
Cc1cc(C(=O)NS(C)(=O)=O)c(F)cc1-c1cnc(O[C@H](C)CCc2ccccc2)c(Cl)c1 [Example 638, 4-(5-chloro-6-(((1R)-1-methyl-3-phenylpropyl)oxy)-3-pyridinyl)-2-fluoro-5-methyl-N-(methylsulfonyl)benzamide, 4-(5-chloro-6-(((1S)-1-methyl-3-phenylpropyl)oxy)-3-pyridinyl)-2-fluoro-5-methyl-N-(methylsulfonyl)benzamide] | 80 | > 3000 | – | –
Cc1cc(Cl)cc(Cl)c1Oc1ncc(-c2ccc(C(=O)NS(C)(=O)=O)cc2OC(F)F)cc1Cl [Example 585, 4-(5-chloro-6-(2,4-dichloro-6-methylphenoxy)-3-pyridinyl)-3-(difluoromethoxy)-N-(methylsulfonyl)benzamide] | 47.2 | 289 | – | –
COc1cc(C(=O)NS(C)(=O)=O)c(F)cc1-c1cnc(Oc2cc(Cl)cc(Cl)c2)c(Cl)c1 [Example 695, 4-(5-chloro-6-(3,5-dichlorophenoxy)-3-pyridinyl)-2-fluoro-5-methoxy-N-(methylsulfonyl)benzamide] | 52.4 | > 3000 | – | –
CCCS(=O)(=O)NC(=O)c1cc(C)c(-c2cnc(OC3CCC3)c(Cl)c2)cc1F [Example 796, 4-(5-chloro-6-(cyclobutyloxy)-3-pyridinyl)-2-fluoro-5-methyl-N-(propylsulfonyl)benzamide] | – | – | 110 | 9310
CC[C@@H](Oc1ncc(-c2cc(F)c(C(=O)NS(C)(=O)=O)cc2Cl)cc1Cl)c1ccc(F)cc1 [Example 596, 5-chloro-4-(5-chloro-6-(((1R)-1-(4-fluorophenyl)propyl)oxy)-3-pyridinyl)-2-fluoro-N-(methylsulfonyl)benzamide, 5-chloro-4-(5-chloro-6-(((1S)-1-(4-fluorophenyl)propyl)oxy)-3-pyridinyl)-2-fluoro-N-(methylsulfonyl)benzamide] | 87.9 | > 3000 | – | –
Cc1cc(C(=O)NS(C)(=O)=O)c(F)cc1-c1cnc(Oc2ccc(C)c(F)c2F)c(Cl)c1 [Example 643, 4-(5-chloro-6-(2,3-difluoro-4-methylphenoxy)-3-pyridinyl)-2-fluoro-5-methyl-N-(methylsulfonyl)benzamide] | 79.2 | 5440 | – | –
COc1cc(C(=O)NS(C)(=O)=O)c(F)cc1-c1cnc(Oc2ccc(F)c(F)c2F)c(Cl)c1 [Example 701, 4-(5-chloro-6-(2,3,4-trifluorophenoxy)-3-pyridinyl)-2-fluoro-5-methoxy-N-(methylsulfonyl)benzamide] | 70.6 | > 3000 | – | –
Cc1cc(C(=O)NS(C)(=O)=O)c(F)cc1-c1cnc(Oc2ccc(C)c3c2CCC3)c(Cl)c1 [Example 662, 4-(5-chloro-6-((7-methyl-2,3-dihydro-1H-inden-4-yl)oxy)-3-pyridinyl)-2-fluoro-5-methyl-N-(methylsulfonyl)benzamide] | 88.2 | 3770 | – | –
Cc1ccc(Cl)cc1Oc1ncc(-c2cc(F)c(C(=O)NS(C)(=O)=O)cc2Cl)cc1Cl [Example 590, 5-chloro-4-(5-chloro-6-(5-chloro-2-methylphenoxy)-3-pyridinyl)-2-fluoro-N-(methylsulfonyl)benzamide] | 68.1 | > 3000 | – | –
Cc1cc(C(=O)NS(C)(=O)=O)c(F)cc1-c1cnc(Oc2cc(F)cc(F)c2Cl)c(Cl)c1 [Example 631, 4-(5-chloro-6-(2-chloro-3,5-difluorophenoxy)-3-pyridinyl)-2-fluoro-5-methyl-N-(methylsulfonyl)benzamide] | 62.8 | > 3000 | – | –
CC[C@H](Oc1ncc(-c2cc(F)c(C(=O)NS(C)(=O)=O)cc2C)cc1Cl)c1ccc(F)cc1 [Example 651, 4-(5-chloro-6-(((1S)-1-(4-fluorophenyl)propyl)oxy)-3-pyridinyl)-2-fluoro-5-methyl-N-(methylsulfonyl)benzamide] | 73.5 | > 3000 | – | –
Cc1cc(C(=O)NS(C)(=O)=O)c(F)cc1-c1cnc(O[C@H](C)c2nc3ccccc3s2)c(Cl)c1 [Example 647, 4-(6-((1R)-1-(1,3-benzothiazol-2-yl)ethoxy)-5-chloro-3-pyridinyl)-2-fluoro-5-methyl-N-(methylsulfonyl)benzamide, 4-(6-((1S)-1-(1,3-benzothiazol-2-yl)ethoxy)-5-chloro-3-pyridinyl)-2-fluoro-5-methyl-N-(methylsulfonyl)benzamide] | 76 | > 3000 | – | –
CCS(=O)(=O)NC(=O)c1cc(C)c(-c2cnc(Oc3c(C)cc(Cl)cc3Cl)c(Cl)c2)cc1F [Example 800, 4-(5-chloro-6-(2,4-dichloro-6-methylphenoxy)-3-pyridinyl)-N-(ethylsulfonyl)-2-fluoro-5-methylbenzamide] | – | – | 96 | 1250
Cc1cc(C(=O)NS(C)(=O)=O)c(F)cc1-c1cnc(Oc2cccc(Br)c2)c(Cl)c1 [Example 607, 4-(6-(3-bromophenoxy)-5-chloro-3-pyridinyl)-2-fluoro-5-methyl-N-(methylsulfonyl)benzamide] | 68.2 | > 3000 | – | –
Cc1cc(C(=O)NS(C)(=O)=O)c(F)cc1-c1cnc(O[C@@H](C)c2cc(Cl)ccc2Cl)c(Cl)c1 [Example 674, 4-(5-chloro-6-((1S)-1-(2,5-dichlorophenyl)ethoxy)-3-pyridinyl)-2-fluoro-5-methyl-N-(methylsulfonyl)benzamide] | 83.4 | 4860 | – | –
CS(=O)(=O)NC(=O)c1cc(Cl)c(-c2cnc(Oc3cc(F)cc(F)c3F)c(Cl)c2)cc1F [Example 589, 5-chloro-4-(5-chloro-6-(2,3,5-trifluorophenoxy)-3-pyridinyl)-2-fluoro-N-(methylsulfonyl)benzamide] | 49.9 | > 3000 | – | –
Cc1cc(C(=O)NS(C)(=O)=O)c(F)cc1-c1cnc(OCCC(C)C)c(Cl)c1 [Example 637, 4-(5-chloro-6-(3-methylbutoxy)-3-pyridinyl)-2-fluoro-5-methyl-N-(methylsulfonyl)benzamide] | 87.7 | > 3000 | – | –
Cc1cc(C(=O)NS(C)(=O)=O)c(F)cc1-c1cnc(Oc2c(C)cc(Cl)cc2C)c(Cl)c1 [Example 669, 4-(5-chloro-6-(4-chloro-2,6-dimethylphenoxy)-3-pyridinyl)-2-fluoro-5-methyl-N-(methylsulfonyl)benzamide] | 66 | 3610 | – | –
CS(=O)(=O)NC(=O)c1cc(Cl)c(-c2cnc(Oc3cc(F)ccc3Cl)c(Cl)c2)cc1F [Example 595, 5-chloro-4-(5-chloro-6-(2-chloro-5-fluorophenoxy)-3-pyridinyl)-2-fluoro-N-(methylsulfonyl)benzamide] | 81.4 | > 3000 | – | –
Cc1cc(C(=O)NS(C)(=O)=O)c(F)cc1-c1cnc(O[C@H](C)C2CCC2)c(Cl)c1 [Example 641, 4-(5-chloro-6-((1R)-1-cyclobutylethoxy)-3-pyridinyl)-2-fluoro-5-methyl-N-(methylsulfonyl)benzamide, 4-(5-chloro-6-((1S)-1-cyclobutylethoxy)-3-pyridinyl)-2-fluoro-5-methyl-N-(methylsulfonyl)benzamide] | 111 | 9320 | – | –
Cc1ccc(C(C)(C)C)c(Oc2ncc(-c3cc(F)c(C(=O)NS(C)(=O)=O)cc3C)cc2Cl)c1 [Example 624, 4-(6-(2-tert-butyl-5-methylphenoxy)-5-chloro-3-pyridinyl)-2-fluoro-5-methyl-N-(methylsulfonyl)benzamide] | 82.7 | > 3000 | – | –
Cc1cc(C(=O)NS(C)(=O)=O)c(F)cc1-c1cnc(Oc2cc(Cl)c(Cl)cc2Cl)c(Cl)c1 [Example 667, 4-(5-chloro-6-(2,4,5-trichlorophenoxy)-3-pyridinyl)-2-fluoro-5-methyl-N-(methylsulfonyl)benzamide] | 50.5 | 7450 | – | –
Cc1cc(C(=O)NS(C)(=O)=O)c(F)cc1-c1cnc(Oc2ccc(C(C)(C)C)cc2Cl)c(Cl)c1 [Example 611, 4-(6-(4-tert-butyl-2-chlorophenoxy)-5-chloro-3-pyridinyl)-2-fluoro-5-methyl-N-(methylsulfonyl)benzamide] | 76.1 | > 3000 | – | –
Cc1cc(C(=O)NS(C)(=O)=O)c(F)cc1-c1cnc(Oc2cc(F)cc(F)c2F)c(Cl)c1 [Example 629, 4-(5-chloro-6-(2,3,5-trifluorophenoxy)-3-pyridinyl)-2-fluoro-5-methyl-N-(methylsulfonyl)benzamide] | 57.8 | > 3000 | – | –
CS(=O)(=O)NC(=O)c1cc(Cl)c(-c2cnc(Oc3ccc(F)c(F)c3F)c(Cl)c2)cc1F [Example 588, 5-chloro-4-(5-chloro-6-(2,3,4-trifluorophenoxy)-3-pyridinyl)-2-fluoro-N-(methylsulfonyl)benzamide] | 82.3 | > 3000 | – | –
CCOc1ccc(Oc2ncc(-c3cc(F)c(C(=O)NS(C)(=O)=O)cc3C)cc2Cl)cc1F [Example 645, 4-(5-chloro-6-(4-ethoxy-3-fluorophenoxy)-3-pyridinyl)-2-fluoro-5-methyl-N-(methylsulfonyl)benzamide] | 97.3 | > 3000 | – | –

Source: US9663508B2, “Biaryl acyl-sulfonamide compounds as sodium channel inhibitors” (AMGEN INC., priority 2013, dated 2017)
